Measured values: ChEMBL document CHEMBL4665836, “Overcoming β-Lactam resistance in Pseudomonas aeruginosa using non-canonical tobramycin-based antibiotic adjuvants” (2020)

Experiments:
Type in all cases: functional
Pseudomonas aeruginosa [1] = assay: Potentiation of imipenem-induced antibacterial activity against carbapenem-resistant Pseudomonas aeruginosa 262-101856 clinical isolate assessed as imipenem MIC at 8 uM by checkerboard assay (reference value: 32 ug/ml)
Pseudomonas aeruginosa [2] = assay: Potentiation of imipenem-induced antibacterial activity against carbapenem-resistant Pseudomonas aeruginosa 108590 clinical isolate assessed as fold reduction in imipenem MIC at 8 uM in presence of beta-lactamase inhibitor, rele-bactam
Pseudomonas aeruginosa [3] = assay: Potentiation of imipenem-induced antibacterial activity against carbapenem-resistant Pseudomonas aeruginosa 264-104354 clinical isolate assessed as imipenem MIC at 8 uM by checkerboard assay (reference value: 16 ug/ml)
Pseudomonas aeruginosa [4] = assay: Potentiation of imipenem-induced antibacterial activity against carbapenem-resistant Pseudomonas aeruginosa 108590 clinical isolate assessed as imipenem MIC at 8 uM by checkerboard assay (reference value: 16 ug/ml)
Pseudomonas aeruginosa [5] = assay: Potentiation of ceftazidime-induced antibacterial activity against carbapenem-resistant Pseudomonas aeruginosa 262-101856 clinical isolate assessed as ceftazidime MIC at 8 uM by checkerboard assay (reference value: 16 ug/ml)
Pseudomonas aeruginosa [6] = assay: Potentiation of imipenem-induced antibacterial activity against carbapenem-resistant Pseudomonas aeruginosa PAO750 harboring mexAB-oprM/mexCD-oprJ/mexEF-oprN/mexJK/mexXY/opmH efflux deficient mutant assessed as imipenem MIC at 8 uM by checkerboard assay (reference value: 4 ug/ml)
Pseudomonas aeruginosa [7] = assay: Potentiation of aztreonam-induced antibacterial activity against carbapenem and colistin-resistant Pseudomonas aeruginosa 114228 clinical isolate assessed as aztreonam MIC at 8 uM by checkerboard assay (reference value: 32 ug/ml)
Pseudomonas aeruginosa [8] = assay: Potentiation of ceftazidime-induced antibacterial activity against carbapenem and colistin-resistant Pseudomonas aeruginosa 91433 clinical isolate assessed as ceftazidime MIC at 8 uM by checkerboard assay (reference value: 4 ug/ml)
Pseudomonas aeruginosa [9] = assay: Potentiation of imipenem-induced antibacterial activity against carbapenem and colistin-resistant Pseudomonas aeruginosa 91433 clinical isolate assessed as imipenem MIC at 8 uM by checkerboard assay (reference value: 8 ug/ml)
Pseudomonas aeruginosa [10] = assay: Potentiation of aztreonam-induced antibacterial activity against carbapenem-resistant Pseudomonas aeruginosa 109084 clinical isolate assessed as fold reduction in aztreonam MIC at 8 uM in presence of beta-lactamase inhibitor, avi-bactam
Pseudomonas aeruginosa [11] = assay: Potentiation of piperacillin-induced antibacterial activity against wild type Pseudomonas aeruginosa PAO1 assessed as fold reduction in piperacillin MIC at 8 uM
Pseudomonas aeruginosa [12] = assay: Potentiation of aztreonam-induced antibacterial activity against carbapenem-resistant Pseudomonas aeruginosa 108590 clinical isolate assessed as aztreonam MIC at 8 uM by checkerboard assay (reference value: 32 ug/ml)
Pseudomonas aeruginosa [13] = assay: Potentiation of ceftazidime-induced antibacterial activity against carbapenem-resistant Pseudomonas aeruginosa 108590 clinical isolate assessed as fold reduction in ceftazidime MIC at 8 uM in presence of beta-lactamase inhibitor, avi-bactam
Pseudomonas aeruginosa [14] = assay: Potentiation of piperacillin-induced antibacterial activity against wild type Pseudomonas aeruginosa PAO1 assessed as piperacillin MIC at 8 uM by checkerboard assay (reference value: 8 ug/ml)
Pseudomonas aeruginosa [15] = assay: Potentiation of aztreonam-induced antibacterial activity against carbapenem-resistant Pseudomonas aeruginosa 86052 clinical isolate assessed as aztreonam MIC at 8 uM by checkerboard assay (reference value: 64 ug/ml)
Pseudomonas aeruginosa [16] = assay: Potentiation of ceftazidime-induced antibacterial activity against carbapenem and colistin-resistant Pseudomonas aeruginosa 114228 clinical isolate assessed as ceftazidime MIC at 8 uM by checkerboard assay (reference value: 8 ug/ml)
Pseudomonas aeruginosa [17] = assay: Potentiation of aztreonam-induced antibacterial activity against carbapenem-resistant Pseudomonas aeruginosa PAO200 harboring mexAB-oprM efflux deficient mutant assessed as aztreonam MIC at 8 uM by checkerboard assay (reference value: 0.25 ug/ml)
Pseudomonas aeruginosa [18] = assay: Potentiation of aztreonam-induced antibacterial activity against carbapenem-resistant Pseudomonas aeruginosa PAO750 harboring mexAB-oprM/mexCD-oprJ/mexEF-oprN/mexJK/mexXY/opmH efflux deficient mutant assessed as aztreonam MIC at 8 uM by checkerboard assay (reference value: 0.5 ug/ml)
Pseudomonas aeruginosa [19] = assay: Potentiation of ceftazidime-induced antibacterial activity against carbapenem-resistant Pseudomonas aeruginosa 107092 clinical isolate assessed as fold reduction in ceftazidime MIC at 8 uM in presence of beta-lactamase inhibitor, avi-bactam
Pseudomonas aeruginosa [20] = assay: Potentiation of aztreonam-induced antibacterial activity against carbapenem-resistant Pseudomonas aeruginosa 107092 clinical isolate assessed as fold reduction in aztreonam MIC at 8 uM in presence of beta-lactamase inhibitor, avi-bactam
Pseudomonas aeruginosa [21] = assay: Potentiation of aztreonam-induced antibacterial activity against carbapenem-resistant Pseudomonas aeruginosa 259-96918 clinical isolate expressing metallo-beta-lactamase assessed as aztreonam MIC at 8 uM by checkerboard assay (reference value: 32 ug/ml)
Pseudomonas aeruginosa [22] = assay: Potentiation of imipenem-induced antibacterial activity against carbapenem-resistant Pseudomonas aeruginosa 88949 clinical isolate assessed as imipenem MIC at 8 uM by checkerboard assay (reference value: 64 ug/ml)
Pseudomonas aeruginosa [23] = assay: Antibacterial activity against wild type Pseudomonas aeruginosa PAO1
Pseudomonas aeruginosa [24] = assay: Potentiation of imipenem-induced antibacterial activity against carbapenem-resistant Pseudomonas aeruginosa 107092 clinical isolate assessed as imipenem MIC at 8 uM by checkerboard assay (reference value: 64 ug/ml)
Pseudomonas aeruginosa [25] = assay: Potentiation of aztreonam-induced antibacterial activity against carbapenem-resistant Pseudomonas aeruginosa 101885 clinical isolate assessed as aztreonam MIC at 8 uM by checkerboard assay (reference value: 16 ug/ml)
Pseudomonas aeruginosa [26] = assay: Potentiation of imipenem-induced antibacterial activity against carbapenem and colistin-resistant Pseudomonas aeruginosa 114228 clinical isolate assessed as imipenem MIC at 8 uM by checkerboard assay (reference value: 8 ug/ml)
Pseudomonas aeruginosa [27] = assay: Potentiation of ceftazidime-induced antibacterial activity against carbapenem-resistant Pseudomonas aeruginosa 109084 clinical isolate assessed as ceftazidime MIC at 8 uM by checkerboard assay (reference value: 64 ug/ml)
Pseudomonas aeruginosa [28] = assay: Potentiation of ceftazidime-induced antibacterial activity against carbapenem and colistin-resistant Pseudomonas aeruginosa 101243 clinical isolate assessed as ceftazidime MIC at 8 uM by checkerboard assay (reference value: 64 ug/ml)
Pseudomonas aeruginosa [29] = assay: Potentiation of imipenem-induced antibacterial activity against carbapenem-resistant Pseudomonas aeruginosa 88949 clinical isolate assessed as fold reduction in imipenem MIC at 8 uM in presence of beta-lactamase inhibitor, rele-bactam
Pseudomonas aeruginosa [30] = assay: Potentiation of imipenem-induced antibacterial activity against carbapenem-resistant Pseudomonas aeruginosa 86052 clinical isolate assessed as fold reduction in imipenem MIC at 8 uM in presence of beta-lactamase inhibitor, rele-bactam
Pseudomonas aeruginosa [31] = assay: Potentiation of imipenem-induced antibacterial activity against wild-type Pseudomonas aeruginosa PAO1 assessed as imipenem MIC at 8 uM by checkerboard assay (reference value: 4 ug/ml)
Pseudomonas aeruginosa [32] = assay: Potentiation of aztreonam-induced antibacterial activity against carbapenem-resistant Pseudomonas aeruginosa 109084 clinical isolate assessed as aztreonam MIC at 8 uM by checkerboard assay (reference value: 64 ug/ml)

Row | SMILES | MIC (Pseudomonas aeruginosa [1]) | fold change (FC) (Pseudomonas aeruginosa [2]) | MIC (Pseudomonas aeruginosa [3]) | MIC (Pseudomonas aeruginosa [4]) | MIC (Pseudomonas aeruginosa [5]) | MIC (Pseudomonas aeruginosa [6]) | MIC (Pseudomonas aeruginosa [7]) | MIC (Pseudomonas aeruginosa [8]) | MIC (Pseudomonas aeruginosa [9]) | fold change (FC) (Pseudomonas aeruginosa [10]) | fold change (FC) (Pseudomonas aeruginosa [11]) | MIC (Pseudomonas aeruginosa [12]) | fold change (FC) (Pseudomonas aeruginosa [13]) | MIC (Pseudomonas aeruginosa [14]) | MIC (Pseudomonas aeruginosa [15]) | MIC (Pseudomonas aeruginosa [16]) | MIC (Pseudomonas aeruginosa [17]) | MIC (Pseudomonas aeruginosa [18]) | fold change (FC) (Pseudomonas aeruginosa [19]) | fold change (FC) (Pseudomonas aeruginosa [20]) | also measured
1 | N=C(N)NC[C@H]1O[C@H](O[C@H]2[C@H](OCCCCCCCCCCCCN3CCN(c4cc5c(cc4F)c(=O)c(C(=O)O)cn5C4CC4)CC3)[C@@H](O[C@H]3O[C@H](CO)[C@@H](O)[C@H](NC(=N)N)[C@H]3O)[C@H](NC(=N)N)C[C@@H]2NC(=N)N)[C@H](NC(=N)N)C[C@@H]1O.O=C(O)C(F)(F)F.O=C(O)C(F)(F)F.O=C(O)C(F)(F)F.O=C(O)C(F)(F)F.O=C(O)C(F)(F)F.O=C(O)C(F)(F)F | 16 µg/mL | 16 | 16 µg/mL | 4 µg/mL | 16 µg/mL | 1 µg/mL | 8 µg/mL | 4 µg/mL | 8 µg/mL | 16 | 2 | 2 µg/mL | 16 | 8 µg/mL | 32 µg/mL | 2 µg/mL | 0.06 µg/mL | 0.06 µg/mL | 16 | 16 | MIC (Pseudomonas aeruginosa [21]): 32 µg/mL; MIC (Pseudomonas aeruginosa [22]): 64 µg/mL; MIC (Pseudomonas aeruginosa [23]): 32 µg/mL; MIC (Pseudomonas aeruginosa [24]): 32 µg/mL; MIC (Pseudomonas aeruginosa [25]): 4 µg/mL; MIC (Pseudomonas aeruginosa [26]): 1 µg/mL; MIC (Pseudomonas aeruginosa [27]): 32 µg/mL; MIC (Pseudomonas aeruginosa [28]): 16 µg/mL; fold change (FC) (Pseudomonas aeruginosa [29]): 16; fold change (FC) (Pseudomonas aeruginosa [30]): 16; MIC (Pseudomonas aeruginosa [31]): 1 µg/mL; MIC (Pseudomonas aeruginosa [32]): 32 µg/mL
2 | NC[C@H]1O[C@H](O[C@H]2[C@H](OCCCCc3cn(CCCCO[C@@H]4[C@@H](O)[C@H](N)C[C@H](N)[C@H]4O[C@H]4O[C@H](CN)[C@@H](O)C[C@H]4N)nn3)[C@@H](O)[C@H](N)C[C@@H]2N)[C@H](N)C[C@@H]1O.O=C(O)C(F)(F)F.O=C(O)C(F)(F)F.O=C(O)C(F)(F)F.O=C(O)C(F)(F)F.O=C(O)C(F)(F)F.O=C(O)C(F)(F)F.O=C(O)C(F)(F)F.O=C(O)C(F)(F)F | 4 µg/mL | 16 | 8 µg/mL | 8 µg/mL | 16 µg/mL | 2 µg/mL | 16 µg/mL | 0.5 µg/mL | 8 µg/mL | 16 | 2 | 16 µg/mL | 16 | 8 µg/mL | 32 µg/mL | 1 µg/mL | 0.06 µg/mL | 0.25 µg/mL | 16 | 16 | MIC (Pseudomonas aeruginosa [21]): 8 µg/mL; MIC (Pseudomonas aeruginosa [22]): 32 µg/mL; MIC (Pseudomonas aeruginosa [23]): > 128 µg/mL; MIC (Pseudomonas aeruginosa [24]): 32 µg/mL; MIC (Pseudomonas aeruginosa [25]): 4 µg/mL; MIC (Pseudomonas aeruginosa [26]): 4 µg/mL; MIC (Pseudomonas aeruginosa [27]): 32 µg/mL; MIC (Pseudomonas aeruginosa [28]): 32 µg/mL; fold change (FC) (Pseudomonas aeruginosa [29]): 16; fold change (FC) (Pseudomonas aeruginosa [30]): 16; MIC (Pseudomonas aeruginosa [31]): 2 µg/mL; MIC (Pseudomonas aeruginosa [32]): 16 µg/mL
